Tested on: human iPSC-derived astrocytes (homozygous ApoE 3 or homozygous ApoE4 genotype)
Assay: Oxygen consumption (Seahorse XF96), FCCP-uncoupled maximal respiration
Format: cell-based
Conditions: hiPSC-derived astrocytes, ApoE3 (FIG. 6) and ApoE4 (FIG. 7); NR 0.5 mM for 24 hours; BHB 0.5 mM or 2 mM or BHP 2 mM for 1 h; FCCP 1 μM
Protocol: Differentiated human iPSC-derived astrocytes with either a homozygous ApoE 3 genotype or homozygous ApoE4 genotype (and otherwise isogenic) were obtained from Cellular Dynamics International (CDI, Madison, WI, USA). The cells were thawed according to the manufacturer's instructions. Astrocytes were cultured in DMEM supplemented with 10% fetal calf serum and N2 complement. Oxygen consumption in human iPSC-derived astrocytes was measured in a Seahorse XF96 instrument (Seahorse Bioscience, North Billerica, MA, USA). Astrocytes were seeded directly into Seahorse 96-well tissue culture plates (XF96 FluxPaks no. 102416-100; Seahorse Bioscience) at a density of 40,000 cells per well. Cells were incubated for 24 hours with 0.5 mM of Nicotinamide riboside chloride (NR) or fresh medium before experiment. Four days after seeding, the cells were washed twice in KRBH containing 1 mM glucose and incubated for 1 h with the ketone bodies BHB (racemic (D,L) BHB) or BHP (D BHP) at the concentration indicated. The cells were maintained at 37° C. during the experiment. Mitochondrial respiration rates were determined every 6 minutes. […] The oxygen consumption rate in hiPSC-derived astrocytes was measured as an indication of mitochondrial function, using a Seahorse instrument. Through addition of the uncoupling agent FCCP, uncoupled (=maximal) respiration was determined.

## NC(=O)c1ccc[n+]([C@@H]2O[C@H](CO)[C@@H](O)[C@H]2O)c1 [NR, Nicotinamide riboside chloride]
  maximal respiration (uncoupled oxygen consumption rate): Neither ketone bodies alone nor NR treatment significantly increases maximal respiration

Reference: patent publication US20250134918A1, “COMPOSITIONS AND METHODS USING A NICOTINAMIDE ADENINE DINUCLEOTIDE (NAD+) PRECURSOR AND AT LEAST ONE KETONE OR KETONE PRECURSOR” (SOCIETE DES PRODUITS NESTLE S.A., priority 2018, published 2025)
